# Test results from the supplement of paper PMC10307832.
# Key:
# Assay in all cases: relative viability (nuclei count vs DMSO), 5 days (fraction); higher = more cells survive
# Trametinib + Crizotinib = compound: CC(=O)Nc1cccc(-n2c(=O)n(C3CC3)c(=O)c3c(Nc4ccc(I)cc4F)n(C)c(=O)c(C)c32)c1 [Trametinib] + C[C@@H](Oc1cc(-c2cnn(C3CCNCC3)c2)cnc1N)c1c(Cl)ccc(F)c1Cl [Crizotinib] (partner 1 µM)
# Procedure, shortened: (§1)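 Relative viability equals treated-well nuclei counts divided by vehicle-well nuclei counts. Counts came from 4× images of lung cancer cell lines grown in 1536-well plates for 5 days after pin-tool dosing on the day after seeding. Dosing used one drug alone or a fixed anchor-drug dose plus five library-drug doses (not always all listed) in √10 steps, and values are medians of duplicate plates.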
# [1] = compound: CN1C=C(C2=CC=CC=C21)/C=C\3/C4=C(C=CC=N4)NC3=O + CC1(C)CCC(c2ccc(Cl)cc2)=C(CN2CCN(c3ccc(C(=O)NS(=O)(=O)c4ccc(N[C@H](CCN5CCOCC5)CSc5ccccc5)c(S(=O)(=O)C(F)(F)F)c4)cc3)CC2)C1 [Navitoclax] (partner 0.5 µM)
# Procedure, shortened: as §1
# [2] = compound: CN1C=C(C2=CC=CC=C21)/C=C\3/C4=C(C=CC=N4)NC3=O + NC(=O)Nc1cc(-c2cccc(F)c2)sc1C(=O)N[C@H]1CCCNC1 [AZD7762] (partner 0.2 µM)
# Procedure, shortened: as §1
# [3] = compound: CN1C=C(C2=CC=CC=C21)/C=C\3/C4=C(C=CC=N4)NC3=O + Nc1nc2[nH]cc(CCc3ccc(C(=O)N[C@@H](CCC(=O)O)C(=O)O)cc3)c2c(=O)[nH]1 [Pemetrexed] (partner 0.2 µM)
# Procedure, shortened: as §1
Cell Line,relative viability (Trametinib + Crizotinib; first compound 0.0025 µM),relative viability (Trametinib + Crizotinib; first compound 0.007906 µM),relative viability (Trametinib + Crizotinib; first compound 0.025 µM),relative viability (Trametinib + Crizotinib; first compound 0.07906 µM),relative viability (Trametinib + Crizotinib; first compound 0.25 µM),relative viability ([1]; first compound 0.02 µM),relative viability ([1]; first compound 0.06325 µM),relative viability ([1]; first compound 0.2 µM),relative viability ([1]; first compound 0.6325 µM),relative viability ([1]; first compound 2 µM),relative viability ([2]; first compound 0.02 µM),relative viability ([2]; first compound 0.06325 µM),relative viability ([2]; first compound 0.2 µM),relative viability ([2]; first compound 0.6325 µM),relative viability ([2]; first compound 2 µM),relative viability ([3]; first compound 0.02 µM),relative viability ([3]; first compound 0.06325 µM),relative viability ([3]; first compound 0.2 µM),relative viability ([3]; first compound 0.6325 µM),relative viability ([3]; first compound 2 µM)
201T,1.05,1.01,0.859,0.872,0.799,1.22,1.21,1.24,1.27,1.23,0.578,0.662,0.761,0.668,0.658,0.31,0.317,0.365,0.342,0.358
A-427,0.924,0.757,0.659,0.658,0.502,0.975,0.887,–,0.984,1.06,0.782,0.753,–,0.729,0.802,0.981,0.973,–,0.94,0.983
BEN,0.794,0.825,–,0.717,0.81,0.0672,0.0704,0.0656,0.0636,0.0694,0.771,0.742,0.485,0.622,0.728,0.715,0.847,0.613,0.731,0.734
CAL-12T,0.651,0.853,0.434,0.367,0.213,1.22,1.11,1.22,1.19,1.14,0.586,0.612,0.623,0.643,0.612,1.1,1.13,1.21,1.34,1.34
ChaGo-K-1,1.13,1.07,1.1,1.01,0.761,0.816,0.939,–,0.902,0.801,0.703,0.868,0.723,0.848,0.877,0.252,0.255,0.241,0.269,0.245
EKVX,0.779,0.778,0.765,0.564,0.4,0.909,0.774,0.811,0.7,0.772,0.676,–,–,0.644,0.607,0.371,–,–,0.354,0.352
EMC-BAC-2,0.755,0.782,0.765,0.732,0.482,0.924,1.12,1.25,1.13,1.35,0.963,0.963,0.91,1.03,1,0.407,0.438,0.442,0.465,0.421
EPLC-272H,0.825,0.672,0.538,0.599,0.377,1.37,0.988,–,1.27,0.944,0.321,0.244,–,0.132,0.174,0.3,0.274,0.298,–,0.369
H3255,0.845,0.931,0.799,0.715,0.48,0.547,0.484,0.422,0.439,0.425,1.02,0.86,0.848,0.954,0.844,0.578,0.549,0.493,0.615,0.54
HARA,0.9,0.907,0.807,0.638,0.336,1.09,1.15,1.04,1.17,1.17,0.197,0.368,–,0.358,0.345,0.24,0.24,–,0.263,0.216
HCC-15,0.658,0.53,0.415,0.259,0.187,0.763,0.689,0.736,0.559,0.665,1.11,1.13,1.37,1.22,1.31,0.228,0.211,0.223,0.217,0.211
NCI-H358,0.526,0.349,0.276,0.243,0.194,–,–,–,–,–,0.531,0.494,0.338,0.488,0.548,0.172,0.15,0.167,0.172,0.164
NCI-H650,0.787,0.736,0.672,0.668,0.339,–,–,–,–,–,1.05,0.939,–,1.2,0.965,0.934,0.875,–,0.805,0.918
NCI-H727,0.381,0.278,0.279,0.195,0.206,0.396,0.349,0.385,0.372,0.4,0.575,0.563,0.405,0.591,0.511,–,–,–,–,–
NCI-H1395,–,–,–,–,–,1.08,0.967,–,1.09,1.11,0.385,0.374,0.364,0.407,0.403,0.82,0.739,0.707,0.845,0.815
NCI-H1703,–,0.495,0.66,0.727,0.423,1.06,1.03,1.01,0.966,0.998,0.107,0.138,0.118,0.112,0.14,–,–,–,–,–
NCI-H1793,–,–,–,–,–,0.425,0.415,0.267,1.05,0.934,0.431,0.595,0.316,0.387,0.443,0.876,1.11,0.73,0.785,0.988
